Test results reported in PubChem BioAssay (NCI).
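Protocol summary: plate cells (96-well), add compound at 5 concentrations, incubate 48 h, interpolate endpoints linearly. TGI: concentration producing complete growth inhibition.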

Key:
Experiment in all cases: NCI-60 cell line screen, 48 h
DMS 114 small cell lung = test system: DMS 114 small cell lung
MALME-3M melanoma = test system: MALME-3M melanoma
DMS 273 small cell lung = test system: DMS 273 small cell lung
HT29 colon = test system: HT29 colon
SNB-78 CNS = test system: SNB-78 CNS
M19-MEL melanoma = test system: M19-MEL melanoma
A498 renal = test system: A498 renal
RPMI-8226 leukemia = test system: RPMI-8226 leukemia
SF-268 CNS = test system: SF-268 CNS
K-562 leukemia = test system: K-562 leukemia
RXF-631 renal = test system: RXF-631 renal
SNB-19 CNS = test system: SNB-19 CNS
SK-MEL-2 melanoma = test system: SK-MEL-2 melanoma
SF-295 CNS = test system: SF-295 CNS
A549 NSCLC = test system: A549 NSCLC
HL-60(TB) leukemia = test system: HL-60(TB) leukemia
RXF 393 renal = test system: RXF 393 renal
SR leukemia = test system: SR leukemia
MOLT-4 leukemia = test system: MOLT-4 leukemia
OVCAR-8 ovarian = test system: OVCAR-8 ovarian
LOX IMVI melanoma = test system: LOX IMVI melanoma
IGROV1 ovarian = test system: IGROV1 ovarian
HCT-15 colon = test system: HCT-15 colon
DLD-1 colon = test system: DLD-1 colon
NCI-H23 lung = test system: NCI-H23 lung
XF 498 CNS = test system: XF 498 CNS
CCRF-CEM leukemia = test system: CCRF-CEM leukemia
SNB-75 CNS = test system: SNB-75 CNS
SK-MEL-28 melanoma = test system: SK-MEL-28 melanoma
SW-620 colon = test system: SW-620 colon
U251 CNS = test system: U251 CNS
HOP-92 NSCLC = test system: HOP-92 NSCLC
KM20L2 colon = test system: KM20L2 colon
OVCAR-5 ovarian = test system: OVCAR-5 ovarian
NCI-H460 lung = test system: NCI-H460 lung
NCI-H226 lung = test system: NCI-H226 lung
HCT-116 colon = test system: HCT-116 colon
M14 melanoma = test system: M14 melanoma
SK-MEL-5 melanoma = test system: SK-MEL-5 melanoma
CAKI-1 renal = test system: CAKI-1 renal
OVCAR-3 ovarian = test system: OVCAR-3 ovarian
786-0 renal = test system: 786-0 renal
EKVX NSCLC = test system: EKVX NSCLC
HCC-2998 colon = test system: HCC-2998 colon
TK-10 renal = test system: TK-10 renal
SF-539 CNS = test system: SF-539 CNS
UACC-257 melanoma = test system: UACC-257 melanoma
UACC-62 melanoma = test system: UACC-62 melanoma
SN12C renal = test system: SN12C renal
OVCAR-4 ovarian = test system: OVCAR-4 ovarian
UO-31 renal = test system: UO-31 renal
ACHN renal = test system: ACHN renal
LXFL 529 NSCLC = test system: LXFL 529 NSCLC
COLO 205 colon = test system: COLO 205 colon
SK-OV-3 ovarian = test system: SK-OV-3 ovarian
KM12 colon = test system: KM12 colon
HOP-62 NSCLC = test system: HOP-62 NSCLC
NCI-H522 lung = test system: NCI-H522 lung

Measured: TGI

O=C(O)CSc1n[nH]c(-c2ccccc2O)n1
not listed: COLO 205 colon | SK-OV-3 ovarian | KM12 colon | HOP-62 NSCLC | NCI-H522 lung
> 100 µM: all other assays above

CON(C)C(=O)C(Cc1ccccc1)NC(=O)OCc1ccccc1 (configuration not stated)
not listed: RXF-631 renal | LOX IMVI melanoma | NCI-H226 lung | 786-0 renal
> 100 µM: all other assays above
